For one data set, the target named is T1, CDK2/cyclin E (Homo sapiens, UniProt P24941).
T1 construct: His; made in house; host or cells: Sf9 insect cells (baculovirus)
Kind of data set: CDK2/Cyclin E kinase assay (GST-Rb phosphorylation, radiolabelled ATP).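 Note: enzyme was His-tagged CDK2/cyclin E co-expressed in baculovirus-infected Sf9 insect cells and purified over a metal-chelate column.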 Format: biochemical.

The next data set concerns human tumour cell lines. Kind of data set: cell-based anti-proliferative assays. The text has this: These assays, including methods for their performance, are described in more detail in Example 3. Using such cell line and enzymes assays it may be determined whether a compound is anti-proliferative in the context of the present invention.
Selected compounds from the above examples were subjected to a standard cellular proliferation assay using a range of different human tumour cell lines. Standard 72-h MTT (thiazolyl blue; 3-[4,5-dimethylthiazol-2-yl]-2,5-diphenyltetrazolium bromide) assays were performed (Haselsberger, K.; Peterson, D. C.; Thomas, D. G.; Darling, J. L. Anti Cancer Drugs 1996, 7, 331–8; Loveland, B. E.; Johns, T. G.; Mackay, I. R.; Vaillant, F.; Wang, Z. X.; Hertzog, P. J. Biochemistry International 1992, 27, 501–10). Human tumour cell lines were obtained from the ATCC (American Type Culture Collection, 10801 University Boulevard, Manessas, Va. 20110-2209, USA).

Another data set concerns A549. Kind of data set: 72-h MTT cellular proliferation assay, A549. The following applies: human tumour cell line A549, 72-h MTT; read-out: Cytotoxicity (IC50, μM) A549. The class given is cell-based. From the text: (§1) Selected compounds from the above examples were subjected to a standard cellular proliferation assay using a range of different human tumour cell lines.
On the technique in general: Formazan colour is commonly taken as a measure of viable cells.

A further data set concerns Saos-2. The experiment in a line: 72-h MTT cellular proliferation assay, Saos-2. The class given is cell-based. The following applies: human tumour cell line Saos-2, 72-h MTT; read-out: Cytotoxicity (IC50, μM) Saos-2.
Excerpt: as §1

The test system of a further data set is HT29. Kind of data set: 72-h MTT cellular proliferation assay, HT29. The conditions noted are these: HT-29; human tumour cell line HT29, 72-h MTT; read-out: Cytotoxicity (IC50, μM) HT29. Format: cell-based.
Excerpt: as §1

Where [1] appears, read: bound stated, (±0.05), read-out: IC50 for cdk2/cyclinE.

Like-named read-outs stand apart in the source and are kept apart here. Where only a bound is given, the exact number is not on record here.

In the case of `Cc1c[nH]c(C)c1-c1ccnc(Nc2ccc(F)cc2)n1` [Compound 1, [4-(2,4-Dimethyl-1H-pyrrol-3-yl)-pyrimidin-2-yl]-(4-fluoro-phenyl)-amine], the IC50 is less than 1000 nM at CDK2/cyclin E (setting [1]) and 1000 ± 700 nM at CDK2/cyclin E (read-out: CDK2/cyclin E (IC50)).

For `Cc1c[nH]c(C)c1-c1ccnc(Nc2cccc([N+](=O)[O-])c2)n1` [Compound 2], in the data set with human tumour cell lines, the “anti-proliferative activity in cell-based assays” value (“anti-proliferative activity” for short) is “particularly effective anti-proliferative agents”.

With `Cc1c[nH]c(C)c1-c1ccnc(Nc2ccc(I)cc2)n1` [Compound 3, [4-(2,4-Dimethyl-1H-pyrrol-3-yl)-pyrimidin-2-yl]-(4-iodo-phenyl)-amine], the IC50 on CDK2/cyclin E (setting [1]) was less than 500 nM; on CDK2/cyclin E (read-out: CDK2/cyclin E (IC50)), 500 nM.

As for `Cc1c[nH]c(C)c1-c1ccnc(Nc2ccc(F)c(F)c2)n1` [Compound 4, (3,4-Difluoro-phenyl)-[4-(2,4-dimethyl-1H-pyrrol-3-yl)-pyrimidin-2-yl]-amine], the IC50 at CDK2/cyclin E (setting [1]) is less than 5000 nM; on CDK2/cyclin E (read-out: CDK2/cyclin E (IC50)), 1300 ± 400 nM.

In the case of `Cc1c[nH]c(C)c1-c1ccnc(Nc2ccc(Cl)cc2)n1` [Compound 5, (4-Chloro-phenyl)-[4-(2,4-dimethyl-1H-pyrrol-3-yl)-pyrimidin-2-yl]-amine], the melting point is 219 to 223 °C. For the same compound, the IC50 on CDK2/cyclin E (setting [1]) is less than 5000 nM. Also, the IC50 at CDK2/cyclin E (read-out: CDK2/cyclin E (IC50)) came out at 1700 nM.

`Cc1c[nH]c(C)c1-c1ccnc(Nc2cc(F)cc(F)c2)n1` [Compound 6, (3,5-Difluoro-phenyl)-[4-(2,4-dimethyl-1H-pyrrol-3-yl)-pyrimidin-2-yl]-amine]: the melting point fell in the range of 153.3 to 156.8 °C. In addition, at CDK2/cyclin E (setting [1]), the IC50 is less than 5000 nM. The IC50 at CDK2/cyclin E (read-out: CDK2/cyclin E (IC50)) was 1300 nM.

`Cc1c[nH]c(C)c1-c1ccnc(Nc2ccc(O)cc2)n1` [Compound 7, 4-[4-(2,4-Dimethyl-1H-pyrrol-3-yl)-pyrimidin-2-ylamino]-phenol] returned a melting point of 189.5 to 193.4 °C. The IC50 on CDK2/cyclin E (setting [1]) is less than 5000 nM. At CDK2/cyclin E (read-out: CDK2/cyclin E (IC50)), the IC50 stood at 2900 nM.

In turn, `Cc1c[nH]c(C)c1-c1ccnc(Nc2cccc(O)c2)n1` [Compound 8, 3-[4-(2,4-Dimethyl-1H-pyrrol-3-yl)-pyrimidin-2-ylamino]-phenol] returned a melting point of 169 to 174.6 °C. Further, the IC50 at CDK2/cyclin E (setting [1]) is less than 5000 nM. Besides, the IC50 on CDK2/cyclin E (read-out: CDK2/cyclin E (IC50)) came out at 1400 nM.

For `Cc1c[nH]c(C)c1-c1ccnc(Nc2ccc(F)cc2F)n1` [Compound 9, (2,4-Difluoro-phenyl)-[4-(2,4-dimethyl-1H-pyrrol-3-yl)-pyrimidin-2-yl]-amine], the melting point was in the range of 219 to 220 °C.

In turn, `Cc1c[nH]c(C)c1-c1ccnc(Nc2ccc(Cl)cc2Cl)n1` [Compound 10, (2,4-Dichloro-phenyl)-[4-(2,4-dimethyl-1H-pyrrol-3-yl)-pyrimidin-2-yl]-amine] came in with a melting point of 158.5 to 159.7 °C.

Consider `Cc1c[nH]c(C)c1-c1ccnc(Nc2ccc(Cl)c(C(F)(F)F)c2)n1` [Compound 11, (4-Chloro-3-trifluoromethyl-phenyl)-[4-(2,4-dimethyl-1H-pyrrol-3-yl)-pyrimidin-2-yl]-amine], for which the melting point was in the range of 187.7 to 190.7 °C.

For the compound `Cc1c[nH]c(C)c1-c1ccnc(Nc2cccc(C(F)(F)F)c2)n1` [Compound 13, [4-(2,4-Dimethyl-1H-pyrrol-3-yl)-pyrimidin-2-yl]-(3-trifluoromethyl-phenyl)-amine], the melting point was 152.7 to 154.3 °C.

Turning to `Cc1c[nH]c(C)c1-c1ccnc(Nc2ccc(I)c(Cl)c2)n1` [Compound 16, (3-Chloro-4-iodo-phenyl)-[4-(2,4-dimethyl-1H-pyrrol-3-yl)-pyrimidin-2-yl]-amine], the melting point is 185 to 187.4 °C. Further, on CDK2/cyclin E (setting [1]), the IC50 was less than 5000 nM. For the same compound, the IC50 at CDK2/cyclin E (read-out: CDK2/cyclin E (IC50)) stood at 1520 nM. Besides, the IC50 in the data set with A549 came to 4.39 µM. Further, the “anti-proliferative activity” value in the data set with human tumour cell lines was “particularly effective anti-proliferative agents”.

`Cc1c[nH]c(C)c1-c1ccnc(Nc2ccc(I)c(F)c2)n1` [Compound 17, [4-(2,4-Dimethyl-1H-pyrrol-3-yl)-pyrimidin-2-yl]-(3-fluoro-4-iodo-phenyl)-amine] showed a melting point of 200 to 202 °C. The IC50 at CDK2/cyclin E (setting [1]) is less than 5000 nM. For the same compound, the IC50 on CDK2/cyclin E (read-out: CDK2/cyclin E (IC50)) came out at 1730 nM.

In the case of `Cc1[nH]c(C#N)c(C)c1-c1ccnc(Nc2cccc([N+](=O)[O-])c2)n1` [Compound 31, 3,5-Dimethyl-4-[2-(3-nitro-phenylamino)-pyrimidin-4-yl]-1H-pyrrole-2-carbonitrile], the “anti-proliferative activity” value with human tumour cell lines was “particularly effective anti-proliferative agents”.

Consider `Cc1[nH]c(C#N)c(C)c1-c1ccnc(Nc2ccc(O)cc2)n1` [Compound 33, 4-[2-(4-Hydroxy-phenylamino)-pyrimidin-4-yl]-3,5-dimethyl-1H-pyrrole-2-carbonitrile], for which the “anti-proliferative activity” value with human tumour cell lines is reported as “particularly effective anti-proliferative agents”.

For `Cc1[nH]c(C#N)c(C)c1-c1ccnc(Nc2cccc(O)c2)n1` [Compound 36, 4-[2-(3-Hydroxy-phenylamino)-pyrimidin-4-yl]-3,5-dimethyl-1H-pyrrole-2-carbonitrile], the IC50 is less than 500 nM on CDK2/cyclin E (setting [1]) and 0.9 µM with Saos-2. Moreover, in the data set on human tumour cell lines, the “anti-proliferative activity” value was “particularly effective anti-proliferative agents”.

On to `Cc1ccc(Nc2nccc(-c3c(C)[nH]c(C#N)c3C)n2)cc1[N+](=O)[O-]` [Compound 37, 3,5-Dimethyl-4-[2-(4-methyl-3-nitro-phenylamino)-pyrimidin-4-yl]-1H-pyrrole-2-carbonitrile], for which the “anti-proliferative activity” value in the data set on human tumour cell lines was “particularly effective anti-proliferative agents”.

Take `Cc1ccc(Nc2nccc(-c3c(C)[nH]c(C#N)c3C)n2)cc1O` [Compound 40, 4-[2-(3-Hydroxy-4-methyl-phenylamino)-pyrimidin-4-yl]-3,5-dimethyl-1H-pyrrole-2-carbonitrile]: the “anti-proliferative activity” value with human tumour cell lines is “particularly effective anti-proliferative agents”.

As for `Cc1cc(Nc2nccc(-c3c(C)[nH]c(C#N)c3C)n2)ccc1F` [Compound 41, 4-[2-(4-Fluoro-3-methyl-phenylamino)-pyrimidin-4-yl]-3,5-dimethyl-1H-pyrrole-2-carbonitrile], the “anti-proliferative activity” value in the data set with human tumour cell lines was “particularly effective anti-proliferative agents”.

In the case of `Cc1[nH]c(C(N)=O)c(C)c1-c1ccnc(Nc2ccc(F)cc2)n1` [Compound 44, 4-[2-(4-Fluoro-phenylamino)-pyrimidin-4-yl]-3,5-dimethyl-1H-pyrrole-2-carboxylic acid amide], in the data set with human tumour cell lines, the “anti-proliferative activity” value is “particularly effective anti-proliferative agents”.

Take `Cc1cn(C)c(C)c1-c1ccnc(Nc2ccc(F)cc2)n1` [Compound 46, (4-Fluoro-phenyl)-[4-(1,2,4-trimethyl-1H-pyrrol-3-yl)-pyrimidin-2-yl]-amine]: the IC50 on CDK2/cyclin E (setting [1]) was less than 5000 nM; on CDK2/cyclin E (read-out: CDK2/cyclin E (IC50)) it was 1790 nM. Also, the “anti-proliferative activity” value in the data set on human tumour cell lines is “particularly effective anti-proliferative agents”.

As to `Cc1[nH]c([N+](=O)[O-])c(C)c1-c1ccnc(Nc2ccc(F)cc2)n1` [Compound 47, [4-(2,4-Dimethyl-5-nitro-1H-pyrrol-3-yl)-pyrimidin-2-yl]-(4-fluoro-phenyl)-amine], in the data set on human tumour cell lines, the “anti-proliferative activity” value is recorded as “particularly effective anti-proliferative agents”.

For the compound `Cc1[nH]c(Br)c(C)c1-c1ccnc(Nc2ccc(F)cc2)n1` [Compound 50, [4-(5-Bromo-2,4-dimethyl-1H-pyrrol-3-yl)-pyrimidin-2-yl]-(4-fluoro-phenyl)-amine], the IC50 at CDK2/cyclin E (setting [1]) is less than 1000 nM.

Consider `Cc1[nH]c(Cl)c(C)c1-c1ccnc(Nc2ccc(F)cc2)n1` [Compound 52, [4-(5-Chloro-2,4-dimethyl-1H-pyrrol-3-yl)-pyrimidin-2-yl]-(4-fluoro-phenyl)-amine], for which, on CDK2/cyclin E (setting [1]), the IC50 was less than 1000 nM.

On to `CCN(CC)Cc1[nH]c(C)c(-c2ccnc(Nc3ccc(F)cc3)n2)c1C` [Compound 53, [4-(5-Diethylaminomethyl-2,4-dimethyl-1H-pyrrol-3-yl)-pyrimidin-2-yl]-(4-fluoro-phenyl)-amine], for which the IC50 at CDK2/cyclin E (setting [1]) is less than 1000 nM; on CDK2/cyclin E (read-out: CDK2/cyclin E (IC50)), 870 nM; with A549, 0.97 µM; in the data set on HT29 it was 1.31 µM; in the data set with Saos-2, 1.61 µM. Also, the “anti-proliferative activity” value in the data set with human tumour cell lines is given as “particularly effective anti-proliferative agents”.

Regarding `Cc1[nH]c(CN2CCOCC2)c(C)c1-c1ccnc(Nc2ccc(F)cc2)n1` [Compound 55, [4-(2,4-Dimethyl-5-morpholin-4-ylmethyl-1H-pyrrol-3-yl)-pyrimidin-2-yl]-(4-fluoro-phenyl)-amine], the melting point was in the range of 94.7 to 97.6 °C. Moreover, the IC50 on CDK2/cyclin E (setting [1]) is less than 1000 nM. The IC50 on CDK2/cyclin E (read-out: CDK2/cyclin E (IC50)) was determined as 870 nM.

On to `Cc1[nH]c(CN2CCN(C)CC2)c(C)c1-c1ccnc(Nc2ccc(F)cc2)n1` [Compound 56, {4-[2,4-Dimethyl-5-(4-methyl-piperazin-1-ylmethyl)-1H-pyrrol-3-yl]-pyrimidin-2-yl}-(4-fluoro-phenyl)-amine], for which the IC50 was less than 5000 nM on CDK2/cyclin E (setting [1]); 1510 nM at CDK2/cyclin E (read-out: CDK2/cyclin E (IC50)); 13.8 µM with A549; 5.09 µM with HT29; 14.2 µM in the data set on Saos-2. The “anti-proliferative activity” value in the data set on human tumour cell lines is on record as “particularly effective anti-proliferative agents”.

By melting point is commonly meant the temperature of the solid-liquid transition.
